Experimental findings from US20230405011A1, “COMBINATION THERAPY FOR THE TREATMENT OF CANCER” (Novartis AG, priority 2013, published 2023) are described below.

The nature of this series: Phase Ib/II trial of Example 5: pharmacokinetics. Format: in vivo.

Each structure is given as a SMILES string.

As for `CN(C)C(=O)c1cc2cnc(Nc3ccc(N4CCNCC4)cn3)nc2n1C1CCCC1` [Compound A1, 7-Cyclopentyl-2-(5-piperazin-1-yl-pyridin-2-ylamino)-7H-pyrrolo[2,3-d]pyrimidine-6-carboxylic acid dimethylamide], the “effect of EVE on Compound A1 exposure” value (preliminary PK analysis) is “does not affect”. Moreover, the absorption entry (steady state (C1D15), Compound A1+EVE+EXE) was “rapidly absorbed”.
As for `CO[C@H]1C[C@@H]2CC[C@@H](C)[C@@](O)(O2)C(=O)C(=O)N2CCCC[C@H]2C(=O)O[C@H]([C@H](C)C[C@@H]2CC[C@@H](OCCO)[C@H](OC)C2)CC(=O)[C@H](C)/C=C(\C)[C@@H](O)[C@@H](OC)C(=O)[C@H](C)C[C@H](C)/C=C/C=C/C=C/1C` [EVE, Everolimus, reference compound], the “EVE exposure at steady state” value (in vivo) is reported as “increased”.
